“Also recorded” adds a separate entry of the source. Bridges are numbered along the chain shown (N, C = ends). Where no end group is shown, it is not given here. [ ]: non-standard residue; d: D form. Cit = NC(=O)NCCC[C@H](N)C(=O)O
Legend:
[1] = test system: serum IgG of RA patients, disease controls and healthy controls; assay: ELISA for IgG antibodies to cyclic α-enolase peptides, UK cohort sera; type: binding, human; settings: for % positive, RA (n = 102): UK cohort RA sera; for % positive, RA (n = 102) / % positive, Disease controls (n = 110) / % positive, Healthy controls (n = 92): cut-off OD450 = 0.1; for % positive, Disease controls (n = 110) / % positive, Healthy controls (n = 92) / sensitivity for RA: UK cohort; for IgG antibody levels / reactivity (OD450) in RA sera / sensitivity for RA: 102 RA patients; for IgG antibody levels / reactivity (OD450) in RA sera: OD450 (peptide)-OD450 (background)
Excerpt: (§1) Serum samples were obtained with informed consent and ethical approval from 102 patients with RA and 92 (or 110 patients for the results generally shown in FIGS. 9 to 16) patients with other arthritidies (including systemic lupus erythematosus (n=32), Sjogrens syndrome (n=31), psoriatic arthritis (n=5), Behçet's syndrome (n=18; FIGS. 9 to 16) and miscellaneous other rheumatic diseases (n=24). 92 control serum samples were obtained from healthy volunteers. An additional cohort of 24 patients with RA undergoing treatment with either methotrexate (MTX) alone (n=13) or methotrexate in combination with Infliximab (INF) (n=11) were collected before treatment as well as 6, 18 and 52 weeks post treatment. Disease activity score (DAS 28), erythrocyte sedimentation rate (ESR) and C-reactive protein (CRP) were measured for each patient at the same time points, i.e. 0, 6, 18 an 52 weeks post treatment. All patients attended the Rheumatology Clinic at Charing Cross Hospital, London. An independent cohort from the US included serum samples from 81 RA patients, taken at baseline in a clinical trial at the Omaha Veterans Affairs Medical Centre, University of Nebraska, USA, and 82 serum samples from healthy volunteers. All RA patients met the American College of Rheumatology (ACR) classification criteria (43).
Fifteen cyclic 15 to 23-mer peptides were synthesised at Cambridge Research Biochemicals (Cleveland, UK). The peptide sequences corresponded to amino acid sequences in human α-enolase (SwissProt accession number P06733) or P. gingivalis enolase (SwissProt accession number AAQ66821), with the addition of cysteine residues at the amino- and carboxy-termini and the exchange of citrulline for arginine residues at certain positions, as shown in Tablet and Table 2 below.
(§2) 96-well plates (Maxisorp; Nunc, Roskilde, Denmark) were coated with α-enolase peptides at 10 μg/ml (diluted in a 50 mM carbonate buffer, pH 9.6), or with carbonate buffer alone, and incubated over night at 4° C. Wells were washed with PBS-Tween (0.05%) and blocked with 2% BSA (diluted in PBS) for 3 hours at room temperature. Sera were diluted 1:50 in RIA-buffer (10 mM Tris, 1% BSA, 350 mM NaCl, 1% Triton-X, 0.5% Na-deoxychlate, 0.1% SDS) supplemented with 10% FCS, added in duplicates and incubated for 1.5 hour at room temperature. Plates were washed as described above and incubated with peroxidase-conjugated mouse anti-human IgG (Hybridoma Reagent Laboratory, Baltimore, USA) (diluted 1:1000 in RIA-buffer, 10% FCS) for 1 hour at room temperature. After a final wash (PBS-Tween, 0.05%), bound antibodies were detected with TMB substrate (KPL, Maryland, USA). The reaction was stopped by the addition of 1M H2SO4 and absorbance measured at 450 nm in a Multiscan Ascent microplate reader (Thermo Labsystems). A control serum was included on all plates to correct for plate-to-plate variation. Background OD450 (wells coated with only carbonate buffer) was subtracted from peptide OD450 for every serum tested. Values above 0.1 were taken as positive. ELISA on the US serum samples were performed in a similar manner, but with 2% BSA in carbonate buffer as background, and with an OD cut-off of 0.2 for positive samples. Anti-CCP antibody status was analysed using the CCP2 kit (Eurodiagnostica, Malmo, Sweden), according to the manufacturer's instructions.

[2] = test system: anti-CEP-1 antibodies in anti-CEP-1 positive RA sera; assay: Liquid phase inhibition of binding to CEP-1-coated plates; design: species or system human; settings: six anti-CEP-1 positive RA sera pre-incubated with 0, 1, 10 and 100 μg/ml peptide
Experimental: Inhibition experiments were performed in liquid phase on six anti-CEP-1 positive RA serum samples or on solid phase using serum from nine double positive (anti-CEP-1 and CCP positive) RA patients. Sera were either pre-incubated for 2 hours in RIA-buffer containing increasing concentrations (0, 1, 10 and 100 μg/ml) of CEP-1, control peptide 1D, peptide 4, peptide 7, peptide 9 or peptide 11, or pre-absorbed on plates coated with CEP-1, carbonate buffer alone or pre-absorbed on commercial CCP2 plates. To eliminate antigen-antibody complexes, the liquid phase mixtures were centrifuged at 13 000 rpm, for 15 minutes, before the supernatants were transferred to CEP-1-coated plates and assessed as described above Inhibition of binding to CEP-1, for serum samples pre-absorbed to CCP, was calculated in relation to the maximum inhibition, which by definition was set to 100% for samples pre-incubated with CEP-1.

[3] = test system: serum IgG of RA patients and healthy controls (US cohort); assay: anti-CEP-1 antibody ELISA, independent US cohort; type: binding, human; settings: cut-off 98th percentile of controls
Excerpt: as §1
as §2, with “ELISA on the US serum samples were performed in a similar manner, but with 2% BSA in carbonate buffer as background, and with an OD cut-off of 0.2 for positive samples.” left out, “instructions. […]” for “instructions.”

| Substance | % positive, RA (n = 102) [1] [%] | % positive, Disease controls (n = 110) [1] [%] | % positive, Healthy controls (n = 92) [1] [%] | inhibition of antibody binding to CEP-1-coated plates [2] | other results |
| --- | --- | --- | --- | --- | --- |
| cakynqll-X-ieeelgskac (CAKYNQLL[Cit]IEEELGSKAC; disulfide 1-19 (inferred); listed as Homo sapiens) [Peptide 8, human α-enolase aa 405-421] | 7 | 4 | 0 |  |  |
| cekgvply-X-hiadlagnsec (CEKGVPLY[Cit]HIADLAGNSEC; disulfide 1-20 (inferred); listed as Homo sapiens) [Peptide 4, human α-enolase aa 125-142] | 16 | 2 | 2 | no inhibition | inhibition of antibody binding to CEP-1-coated plates ([2]; listed as peptide 4): did not result in decreased antibody binding |
| ciqvvgddltvtnpk-X-iakac (CIQVVGDDLTVTNPK[Cit]IAKAC; disulfide 1-21 (inferred); listed as Homo sapiens) [Peptide 10, human α-enolase aa 313-331] | 6 |  | 1 |  |  |
| ckfag-X-nf-X-nplakc (CKFAG[Cit]NF[Cit]NPLAKC; disulfide 1-15 (inferred); listed as Homo sapiens) [Peptide 9, human α-enolase aa 422-434] | 15 | 1 | 1 | no inhibition | inhibition of antibody binding to CEP-1-coated plates ([2]; listed as peptide 9): did not result in decreased antibody binding |
| ckiha-R-eifds-R-gnptvec (CKIHAREIFDSRGNPTVEC; listed as Homo sapiens) [Peptide 1D, arginine containing control peptide, aa 5-21] |  | 2 | 3 | did not result in decreased antibody binding; also recorded: no inhibition | IgG antibody levels / reactivity (OD450) in RA sera [1]: low IgG-levels; also recorded: low reactivity; IgG antibody levels / reactivity (OD450) in RA sera ([1]; listed as arginine-containing control peptide): low degree of reactivity; IgG antibody levels / reactivity (OD450) in RA sera ([1]; listed as peptide 1D): low IgG-levels; sensitivity for RA [1]: about 4.9% |
| ckiha-R-eifds-X-gnptvec (CKIHAREIFDS[Cit]GNPTVEC; disulfide 1-19 (inferred); listed as Homo sapiens) [Peptide 1B] | 40 |  |  |  | IgG antibody levels / reactivity (OD450) in RA sera [1]: higher antibody levels; sensitivity for RA [1]: higher sensitivity |
| ckiha-X-eifds-R-gnptvec (CKIHA[Cit]EIFDSRGNPTVEC; disulfide 1-19 (inferred); listed as Homo sapiens) [Peptide 1C] | 20 |  |  |  | sensitivity for RA [1]: about 20% |
| ckiig-X-eilds-X-gnptvec (CKIIG[Cit]EILDS[Cit]GNPTVEC; disulfide 1-19 (inferred); listed as Homo sapiens) [1A P. gingivalis, P. gingivalis enolase version of CEP-1, X = citrulline] | 34 |  |  |  | % healthy controls positive, US cohort (n=82) [3]: 2% |
| cnf-X-eam-X-igaevyhnlknc (CNF[Cit]EAM[Cit]IGAEVYHNLKNC; disulfide 1-20 (inferred); listed as Homo sapiens) [Peptide 5, human α-enolase aa 177-194] | 11 | 4 | 3 |  |  |
| cnpk-X-iakavnekscncllc (CNPK[Cit]IAKAVNEKSCNCLLC; also: cyclic via terminal Cys, bond and pairing not given here; listed as Homo sapiens) [Peptide 11, human α-enolase aa 324-341] | 18 |  | 0 | no inhibition | inhibition of antibody binding to CEP-1-coated plates ([2]; listed as peptide 11): did not result in decreased antibody binding |
| cvdlftskglf-X-aavpsgc (CVDLFTSKGLF[Cit]AAVPSGC; disulfide 1-19 (inferred); listed as Homo sapiens) [Peptide 2, human α-enolase aa 22-38] | 10 | 0 | 2 |  |  |
| cyealel-X-dndkt-X-ymgkgvskc (CYEALEL[Cit]DNDKT[Cit]YMGKGVSKC; disulfide 1-23 (inferred); listed as Homo sapiens) [Peptide 3, human α-enolase aa 44-64] | 15 | 2 | 0 |  |  |
